Measurements as given in patent US10221125B2, “Solid forms” (Oryzon Genomics, S.A., priority 2015, dated 2019).
Counter-ions that a name gives are not always drawn.

Columns and labels:
Assay type in all cases: physicochemical
[1] = Stability of the di-hydrochloric acid salt (decomposition, release of HCl)
[2] = Long-term incubation/storage at elevated temperature or elevated humidity (phase change)
[3] = Hygroscopicity (mass increase when relative humidity is raised from 0% rH to 90% rH); conditions: increase in mass
Excerpt: The term “hygroscopicity” describes the ability of a solid material to adsorb moisture. The hygroscopicity of a given API is characterized [European Pharmacopoeia—6th Edition (2008), Chapter 5.11) by the increase in mass when the relative humidity is raised from 0% rH to 90% rH: • non-hygroscopic: weight increase Δm<0.2%; • slightly hygroscopic: weight increase 0.2%≤Δm<2.0%; • hygroscopic: weight increase 2.0%≤Δm<15.0%; • very hygroscopic: weight increase Δm≥15.0%; • a deliquescent: sufficient water is adsorbed to form a liquid.

[4] = Thermal behaviour on heating/cooling (temperature controlled XRPD)
Protocol: For temperature controlled XRPD measurements, the sample was placed without further processing (e.g. grinding or sieving) in a quartz glass capillary of 1 mm diameter and sealed. Measurements were performed with a STOE high-/low-temperature extension (temperature range −50° C. to 300° C.) with am NiCr/Ni-thermal element at a ramp rate of 5° C. per minute, temperature steps every 5° C., 30 minutes measuring time per step, […]

[5] = Long term equilibration slurry experiments (polymorph stability)

## N[C@H]1CC[C@H](N[C@@H]2C[C@H]2c2ccccc2)CC1 [(trans)-N1-((1R,2S)-2-phenylcyclopropyl)cyclohexane-1,4-diamine di-hydrochloride]
[1]
  stability of di-hydrochloric acid salt (decomposition to mono-hydrochloride, release of corrosive hydrochloric acid): does not decompose and release corrosive hydrochloric acid

## N[C@H]1CC[C@H](N[C@@H]2C[C@H]2c2ccccc2)CC1 [Form A, (trans)-N1-((1R,2S)-2-phenylcyclopropyl)cyclohexane-1,4-diamine di-hydrochloride]
[2]; increased humidity, e.g. 100% rH
  phase change to Form B on long term storage: does not induce a phase change to Form B
[3]
  hygroscopicity: slightly hygroscopic (slightly hygroscopic: weight increase 0.2%≤Δm<2.0%)

## N[C@H]1CC[C@H](N[C@@H]2C[C@H]2c2ccccc2)CC1 [Form B, (trans)-N1-((1R,2S)-2-phenylcyclopropyl)cyclohexane-1,4-diamine di-hydrochloride]
[2]
  stability as compared to Form A: substantially increased
[2]; elevated temperature or elevated humidity, even at 100% rH
  phase change during long-term incubation: no phase-change is observed
[4]; heating of Form B
  formation of Form C upon heating: cannot be prepared upon heating of Form B
[4]; on heating, di-hydrochloride
  decomposition temperature: above 210 °C
[3]
  hygroscopicity: slightly hygroscopic (slightly hygroscopic: weight increase 0.2%≤Δm<2.0%)
[5]
  polymorph stability ranking: most stable polymorph

## N[C@H]1CC[C@H](N[C@@H]2C[C@H]2c2ccccc2)CC1 [Form C, (trans)-N1-((1R,2S)-2-phenylcyclopropyl)cyclohexane-1,4-diamine di-hydrochloride]
[4]
  polymorph stability description: unstable high-temperature polymorph
